Laboratory results taken from patent US9884012B2, “Use of PEDF-derived polypeptides for promoting muscle or tendon regeneration or arteriogenesis” (MacKay Memorial Hospital, priority 2012, dated 2018).

Key:
[1] = tested on: adductor magnus muscle arterioles; assay: hindlimb ischemia model, arteriole density (α-SMA) in adductor magnus muscle; format: in vivo, C57BL/6 wild-type mice; details: two weeks after surgery, sustained-release formulation (Bolus: bolus 29-mer)
Experimental: The small artery densities (α-SMA positive cells surrounding the whole circumference of the vessel) were measured and images were taken from 10 randomly-selected areas of adductor magnus muscle (200× magnification) in each sample, and blinded quantification was performed in triplicate by manually counting within each section; values from five sections were then averaged and expressed as arteriole density per mm^2.
(§1) 6-week-old female C57BL/6 wild-type mice were anesthetized by an intraperitoneal injection of a mixture of zoletil (6 mg/kg) and xylazine (3 mg/kg). Hair was removed from the hindquarter with a depilating cream. To establish hindlimb ischemia, unilateral external iliac and femoral arteries and veins were ligated, cut, and excised. After surgery, the mice were randomly assigned to several experimental groups (n=6, each group) and treated as follows. In the blank control group, the mice were treated with 50 μl of blank alginate gel, whereas in the bolus control group, the mice received the bolus formulation containing 29-mer. In the PEDF peptide/alginate gel treatment groups, the mice received 50 μl of the sustained-release formulation, which comprised either 29-mer, 24-mer, or 20-mer. Additionally, in a PEDF 18-mer control group, mice were treated with a sustained-release formulation containing a PEDF 18-mer peptide. Treatments were applied by way of a single intramuscular injection to the gracilis muscle immediately after femoral artery and vein excision operation. The incision was closed after the wound was irrigated with sterile saline.
To investigate the arteriogenic effect of the present sustained-release formulation, adductor magnus muscles (located at the same level as femoral artery excision and in which arteriogenesis responsible for establishing collateral circulation is expected to be found) were harvested from animals in each experimental condition, two weeks after the surgery. Arterioles in muscle cross sections were identified by immunohistological staining for vascular smooth muscle cells (α-SMA; brown), and nuclei were labeled with hematoxylin; representative photographs were provided in FIG. 5. Quantitative analysis was also performed and the results were summarized in Table 3, and the data were expressed as α-SMA-positive arterioles per mm^2 in the peri-injury region.

tibialis anterior muscle = assay: hindlimb ischemia model, tibialis anterior muscle necrosis/fibrosis and centrally nucleated fibers; format: in vivo, C57BL/6 wild-type mice; details: two weeks after surgery, sustained-release formulation (Bolus: bolus 29-mer)
Experimental: The gracilis, adductor magnus, soleus, and tibialis muscles were fixed in 4% paraformaldehyde, dehydrated with graded ethanol series, and paraffinized. Fixed samples were de-paraffinized in xylene and rehydrated in a graded series of ethanol. Tissues were sliced into 5-μm sections. General histology was performed using H&E dye.
To ascertain the number of centrally nucleated muscle fibers, sections were stained with H&E and then photographed as described above. At least 100 stained fibers were randomly chosen from each photo. Muscle fibers were judged centrally nucleated if one or more nuclei were not located at the periphery of the fiber. The data were expressed as a % of the total number of muscle fibers counted. Results were evaluated from 6 sections per muscle section, and 10 mice at each group.
as §1
In most hindlimb ischemia models, tissue necrosis generally occurs in the muscles below the knee. For example, tibialis anterior muscle, which is distant to the gracilis muscle where the treatment was administered, often undergoes extensive necrosis with regeneration after femoral artery excision. The intensity of Masson's trichrome blue color staining depended on the content of collagen fibers in the investigated tissue, and fibrosis is the result of necrosis. […] Results from representative samples are illustrated in FIGS. 4A and 4B.
Statistical analyses regarding injured area (necrotic area+fibrotic area) and numbers of centrally nucleated fibers were also performed at two weeks after the surgery, and the results were summarized in Table 2. The injured area is expressed as the percent of total stained area (%), and the centrally nucleated fibers is expressed as the total number of muscle fibers counted (%).

tendon stem cells (TSCs) = assay: TSCs proliferation assay (BrdU labeling) in vitro; format: cell-based, New Zealand White rabbits; details: TSCs passage 4; 50 nM peptide, 5% FBS, 24 hours; BrdU pulse-labeling
Experimental: New Zealand White rabbits (6-8 months old, 3.0-4.0 kg) were used in this study. Achilles tendons were removed from the rabbits by cutting through their bony attachments. The tendon sheath was stripped away and the core portion of the tendons was minced into small fragments. Each 100 mg of fragment was then digested in a solution containing 3 mg/mL of type I collagenase and 4 mg/mL of dispase in 1 ml Dulbecco's Modified Eagle Medium (DMEM-high glucose) at 37° C. for 2 hours. The resultant cell suspension was centrifuged at 1,000 rpm for 15 minutes to obtain a cell pellet which was then resuspended in a growth medium consisting of DMEM supplemented with 10% heat inactivated fetal bovine serum (FBS), 100 μM 2-mercaptoethanol, and 100 U/ml penicillin and 100 μg/ml streptomycin. For passage, near-confluent cells were harvested with 0.25% trypsin and then 1×10^5 subcultured cells were further cultured in medium.
The TSCs at passage 4 were seeded at gelatin-coated slide in a 6-well plate at a density of 2×10^5 cells per well and cultured in growth medium (DMEM+10% FBS) for 24 hours before being replaced by a basal growth medium with 5% FBS only (control group) or with 5% FBS plus an additional 50 nM of PEDF-derived peptide (i.e., 29-mer, 24-mer, 20-mer, 18-mer, Mo 29-mer, or Mo 20-mer) for 24 hours. For BrdU labeling assay, BrdU (final concentration, 10 μM) was added to the culture for 4 hours. After fixing with 4% paraformaldehyde, cells were exposed to cold methanol for 2 minutes, and then treated with 1 N HCl at RT for 1 hour before performing immunofluorescence. The phenotype of passage 4 TSC was determined by immunocytochemistry of nucleostemin and type I collagen. Almost all of expanded TSCs were nucleostemin and type I collagen-double positive cells.
It has been reported that during the tendon healing process, tendon stem cells (TSCs) would proliferate and differentiate into tenocytes. To investigate whether present PEDF peptides would induce the proliferation of TSCs in vitro, tendons stem cells were isolated and cultured as described in the “Materials and Methods” section. The purity of TSCs was confirmed by a TSC marker, nucleostemin, as well as the expression of type I collagen by TSCs; together, these analyses indicated a TSC purity of near 100% (data not shown). The proliferation of TSCs was confirmed by BrdU pulse-labeling for 2 hours. Quantitative analysis of the level of BrdU-positive cells was performed as described above, and the results were summarized in Table 8.

Row | Sequence | Arteriole Density per mm^2 (α-SMA-positive arterioles) [1] | Centrally nucleated fibers (%) (tibialis anterior muscle) | Injured Area (%) (necrotic area + fibrotic area, percent of total stained area) (tibialis anterior muscle) | BrdU Labeling Index (%) (tendon stem cells (TSCs))
1 | SLGAEQRTESIIHRALYYDL [20-mer, synthetic peptide corresponding to residues 93-112 of human PEDF] | 10.7 ± 1.2 per mm^2 | 61.2 ± 5.8 % | 38.0 ± 5.2 % | 33.2 ± 6.6 %
2 | SLGAEQRTESIIHRALYYDLISSPDIHGT [29-mer, synthetic peptide corresponding to residues 93-121 of human PEDF] | 11.7 ± 1.5 per mm^2 | 72.5 ± 5.2 % | 39.5 ± 4.2 % | 31.8 ± 3.6 %
3 | SLGAEQRTESIIHRALYYDLISSP [24-mer, synthetic peptide corresponding to residues 93-116 of human PEDF] | 10.0 ± 0.58 per mm^2 | 67.8 ± 5.3 % | 36.8 ± 5.5 % | 29.0 ± 4.6 %
